# Measurements taken from patent US5955501A, “Protein kinase C modulators O” (priority 1995, dated 1999).
# Key:
# [1] = system: phorbol 12-myristate 13-acetate induced ear inflammation/erythema; test: Mouse ear inflammation test: inhibition of phorbol 12-myristate 13-acetate induced inflammation/erythema; type: in vivo, mice
# Experimental: Method: A stock solution of 300 pmoles of the standard inflammatory compound phorbol 12-myristate 13-acetate per 5 μL acetone was prepared. This solution was used to prepare four-fold dilutions of 20-deoxy-20-(2'-hydroxyethylthio)phorbol 12-myristate 13-acetate, prepared as in Example 3, covering concentrations of the latter ranging from 4 to 64,000 pmoles per 5 μL.
# [2] = system: T-24 human bladder carcinoma cells; test: Anti-cancer activity: methylene blue cell growth assay; type: cell-based; details: 5-6 days incubation, methylene blue staining, read-out: IC50 (drug concentration which leads to 50% of cells per well compared to control cultures)
# Experimental: T-24 human bladder carcinoma cells were cultured in Eagle's minimal essential medium supplemented with 5% fetal bovine serum. Cells (1,000) were seeded into 96-well microtiter plates and incubated overnight. Serial dilutions of 20-deoxy-20(2'-hydroxyethylthio)phorbol 12-myristate 13-acetate (dissolved in DMSO and then diluted with culture medium) were added to the wells on day 1. The plates were incubated for 5-6 days to allow the control cultures to undergo at least 3 cell divisions. After the incubation period, the cells were fixed with glutaraldehyde, washed with water and stained with 0.05% methylene blue. After washing the dye was eluted with 3% HCl. The optical density per well was measured at 665 nm and compared using the formula:(OD Test-OD Start)/(OD Control-OD Start)×100.
# [3] = system: Human RPMI-7272 melanoma cells; test: Anti-melanoma activity: inhibition of cell doublings; type: cell-based; details: 72 h of exposure, read-out: ID50 (concentration of drug required to inhibit cell doublings by 50%)
# Experimental: Human RPMI-7272 melanoma cells were grown in the standard culture medium under normal incubation conditions. On day 1 the cells were cultured in the absence (control) or presence of graded concentrations (3-100 μg/ml) of 20-deoxy-20-(2'-hydroxyethylthio)phorbol 12-myristate 13-acetate in separate tubes. On day 4 after 72 h of exposure the number of cells in each tube was measured and the number of cell doublings determined. The drug treated tubes were compared to the control tube.
# [4] = system: HL-60 promyelocytic leukemia cells; test: Anti-leukemic activity: MTT cell growth assay; type: cell-based; details: Homo sapiens, HL-60, 192 h, 8 days incubation, read-out: IC50 (drug concentration which leads to 50% of cells per well compared to control cultures)
# Experimental: HL-60 promyelocytic leukemia cells were cultured in RPMI 1640 medium supplemented with 10% fetal bovine serum. Cells (7,500) were seeded into 96-well microtiter plates and incubated overnight. Serial dilutions of 20-deoxy-20-(2'-hydroxyethylthio)phorbol 12-myristate 13-acetate (dissolved in DMSo and then diluted with culture medium) were added to the wells on day 1. The plates were incubated for 8 days to allow the control cultures to undergo at least 3 cell divisions. The cell growth was monitored by using the calorimetric MTT (tetrazolium) assay [Mosmann, T., J. Immunol. Meth. 65: 55-63 (1983)]. After the incubation period, the cells were washed with phosphate-buffered saline in the microtiter plate. DMSO was then added to each well and the dish was put on a shaker for 20 min. The optical density was measured at 540 nm and compared using the formula:(OD Test OD Start)/(OD Control - OD Start) x 100.
# HIV = test: Anti-HIV activity in HIV-infected human peripheral blood lymphocytes (supernatant viral RNA and p24 core protein); type: cell-based; details: Human immunodeficiency virus 1, Lymphocyte; from dose-response curves or by estimation from one or more experimental drug concentrations; read-out: anti-HIV ED50 for RNA
# Experimental: Human peripheral blood lymphocytes were isolated from the buffy coat fractions of blood donations. The lymphocytes were then stimulated with 5 μg/ml of phytohemagglutinin for 48 hours. Prior to infection with HIV, the lymphocytes were washed and resuspended in mitogen-free medium. On day 0 the cells were infected with HIV and were cultured for four days in the presence or absence of graded concentrations of 20-deoxy-20-chlorophorbol 12,13-bis[(2',4'-difluorophenyl)acetate]. On days 3 and 4 the supernatant levels of total viral RNA and viral core protein p24 were determined at each drug concentration and dose-response curves were used to determine the concentration of drug giving 50% inhibition of production of viral RNA and of p24 core protein. At four days these ED50 values were less than 100 pM for both RNA and p24.
# (§1) In a manner similar to Example 111, the anti-HIV ED50 values for RNA [drug concentration is in brackets] for the following diterpenoid compounds were determined from dose-response curves or by estimation from one or more experimental drug concentrations.
# as §1, with “indolactam-type” for “diterpenoid”, “concentrations, data giving percent inhibition of viral RNA production at selected concentrations appear in parentheses:” for “concentrations.”
# as §1, with “diacylglycero-type” for “diterpenoid”, “concentrations; data giving percent inhibition of viral RNA production at selected concentrations appear in parentheses: […]” for “concentrations.”
# diacylglycerol site = test: Diacylglycerol site binding activity (test not described at the place)
# [5] = Anti-viral properties (test not described at the place)
Structure (SMILES),IC50 [2],IC50 [4],other results
CCCCCCCCCCCCCC(=O)O[C@@H]1[C@@H](C)[C@@]2(O)[C@@H](C=C(CSCCO)C[C@]3(O)C(=O)C(C)=C[C@@H]23)[C@@H]2C(C)(C)[C@]12OC(C)=O [20-deoxy-20-(2'-hydroxyethylthio)phorbol 12-myristate 13-acetate],13 µM,5.4 µM,"inhibition of phorbol 12-myristate 13-acetate induced ear inflammation/erythema ([1]; applied with 300 pmoles phorbol 12-myristate 13-acetate per 5 μL acetone to inside of right ear, observed 1 to 48 hours): Inhibition of the phorbol 12-myristate 13-acetate induced inflammation was observed at the medium and higher concentrations; IC50 [3]: 42 µM"
CCCCCCCCCCCCCC(=O)O[C@@H]1[C@@H](C)[C@@]2(O)[C@@H](C=C(CC#N)C[C@]3(O)C(=O)C(C)=C[C@@H]23)[C@@H]2C(C)(C)[C@]12OC(C)=O [20-deoxy-20-cyanophorbol 12-myristate 13-acetate],2 µM,,EC50 (HIV): 1.5 µM
"C=C1C[C@]2(O)C(=O)C(C)=C[C@H]2[C@@]2(O)[C@H](C)[C@@H](OC(=O)CCCCCCCCCCCCC)[C@]3(OC(C)=O)[C@H]([C@@H]2C1CO)C3(C)C (stereo partly drawn) [12-β-myristoyloxy-13-acetoxy-4,9-dihydroxy-7-hydroxymethyl-1,6(20)-tigliadien-3-one]",5.5 µM,5.2 µM,"anti-inflammatory activity ([1]; general statement in the description, test not named there): good anti-inflammatory activity"
CCCCCCCCCCCCCC(=O)O[C@@H]1[C@@H](C)[C@@]2(O)[C@@H](C=C(COC(=O)NC)C[C@]3(O)C(=O)C(C)=C[C@@H]23)[C@@H]2C(C)(C)[C@]12OC(C)=O [phorbol 12-myristate 13-acetate 20-methylcarbamate],6.3 µM,2.6 µM,
CCCCCCCCCCCCCC(=O)O[C@@H]1[C@@H](C)[C@@]2(O)[C@@H](C=C(CCC3=C[C@H]4[C@@H]5C(C)(C)[C@]5(OC(C)=O)[C@H](OC(=O)CCCCCCCCCCCCC)[C@@H](C)[C@]4(O)[C@@H]4C=C(C)C(=O)[C@@]4(O)C3)C[C@]3(O)C(=O)C(C)=C[C@@H]23)[C@@H]2C(C)(C)[C@]12OC(C)=O [20-Deoxy-20-[20'-deoxyphorbol-20'-yl(12'-myristate 13'-acetate)]phorbol 12-Myristate 13-Acetate],,,diacylglycerol site binding activity (diacylglycerol site): still exhibits diacylglycerol site binding activity; anti-viral properties [5]: anti-viral properties
